The record followed here is publication PMC10720248 (Frontiers in Chemistry, 2023).

Molecules are shown by their SMILES.

The experiment relates to TLBro. Conditions: pH 8.0, 37°C, 10 mM Tris-HCl, 100 mM NaCl, 10 mM CaCl2.

For `N=C(N)NCCCC(NC(=O)c1ccccc1)C(=O)Nc1ccc([N+](=O)[O-])cc1` (racemic) [DL-BAρNA, N-benzoyl-L-arginine-ρ-nitroanilide], the Km was 850 µM.

In general, Km refers to the substrate concentration at which the rate is half of its maximum.
